≈ marks a conversion by molar mass, not a printed value.
Tests used:
CCRF-CEM cell line = assay: growth inhibition of human leukemic cells; type: cell-based; details: read-out: IC50 (concentration giving 50% growth inhibition)
[1] = tested on: spontaneously hypertensive rats (SHR); assay: blood pressure lowering in spontaneously hypertensive rats (tailcuff method); type: in vivo; details: 5 mg/kg subcutaneous, 3-5 hours
Text: Certain of the compounds of this invention are also active in lowering the blood pressure of spontaneously hypertensive rats (SHR). For example, β-methyl 2-deoxy-3-phosphocholyl-5-n-hexadecyl-D-ribofuranoside, when administered subcutaneously to SHR at various dose levels, produced the hypotensive effects set forth in Table III below.
*measured by tailcuff method

[2] = tested on: X-5563, a plasma cell myeloma; assay: antitumor activity against transplanted X-5563 plasma cell myeloma in mice; type: in vivo; details: daily for 10 days with 3 day delay
Text: Compounds according to formula II above are also active against transplanted tumors in mice. Table II which follows gives the results of testing α-methyl 2-deoxy-3-phosphocholyl-5-n-hexadecyl-D-ribofuranoside against X-5563, a plasma cell myeloma. In the table, column 1 gives the dosage levels, column 2 toxic deaths, column 3, the percent tumor growth inhibition and column 4, the dosage schedule or regimen. Ten mice were given each dosage ip and a group of 20 mice used as controls.

Row | IC50 (CCRF-CEM cell line) [µg/mL] | SMILES | other results
1 | 6.4 (≈ 12.2 µM) | CCCCCCCCCCCCCCCCOC[C@H]1OC(O)C[C@@H]1OP(=O)([O-])OCC[N+](C)(C)C (stereo partly drawn) [drawing 19 (R = H(OH), R^1 = OH(H)), 2-deoxy-3-phosphocholyl-5-n-hexadecyl-D-ribose] | –
2 | 13.2 (≈ 25.2 µM) | CCCCCCCCCCCCCCCCO[C@H]1CC(O)O[C@@H]1COP(=O)([O-])OCC[N+](C)(C)C (stereo partly drawn) [drawing 20 (R = H(OH), R^1 = OH(H)), 2-Deoxy-3-n-hexadecyl-5-phosphocholyl-D-ribose] | –
3 | 3.4 (≈ 6.7 µM) | CCCCCCCCCCCCCCCCO[C@H]1CCO[C@@H]1COP(=O)([O-])OCC[N+](C)(C)C [drawing 20 (R = H, R^1 = H), 1,2-Dideoxy-3-n-hexadecyl-5-phosphocholyl-D-ribofuranose] | –
4 | < 2.1 | CCCCCCCCCCCCCCCCO[C@H]1C[C@H](OC)O[C@@H]1COP(=O)([O-])OCC[N+](C)(C)C [drawing 20 (R = H, R^1 = MeO), β-Methyl 2-deoxy-3-n-hexadecyl-5-phosphocholyl-D-ribofuranoside] | –
5 | 5.2 (≈ 9.67 µM) | CCCCCCCCCCCCCCCCO[C@H]1C[C@@H](OC)O[C@@H]1COP(=O)([O-])OCC[N+](C)(C)C [drawing 20 (R = MeO, R^1 = H), Methyl 2-deoxy-3-n-hexadecyl-5-phosphocholyl-D-ribofuranoside] | –
6 | 6.2 (≈ 11.9 µM) | CCCCCCCCCCCCCCCCO[C@H]1CC(=O)O[C@@H]1COP(=O)([O-])OCC[N+](C)(C)C [drawing 20 (R, R^1 = Carbonyl), 2-deoxy-3-n-hexadecyl-5-phosphocholyl-D-ribofuran-1-one] | –

The remaining lines, values behind:

Row | SMILES | IC50 (CCRF-CEM cell line) [µg/mL] | other results
7 | CCCCCCCCCCCCCCCCOC[C@H]1OCC[C@@H]1OP(=O)([O-])OCC[N+](C)(C)C [drawing 19 (R = H, R^1 = H), 1,2-dideoxy-3-phosphocholyl-5-n-hexadecyl-D-ribofuranose] | 3.7 (≈ 7.29 µM) | –
8 | CCCCCCCCCCCCCCCCOC[C@H]1O[C@@H](OC)C[C@@H]1OP(=O)([O-])OCC[N+](C)(C)C [drawing 19 (R = H, R^1 = MeO), β-methyl 2-deoxy-3-phosphocholyl-5-n-hexadecyl-D-ribofuranoside] | 6.2 (≈ 11.5 µM) | Heart Rate [1]: No effect; Blood pressure effect ([1]; tailcuff method): -20 mmHg
9 | CCCCCCCCCCCCCCCCOC[C@H]1O[C@H](OC)C[C@@H]1OP(=O)([O-])OCC[N+](C)(C)C [drawing 19 (R = MeO, R^1 = H), α-methyl 2-deoxy-3-phosphocholyl-5-n-hexadecyl-D-ribofuranoside] | 2.3 (≈ 4.28 µM) | Percent inhibition of Tumor growth ([2]; 25 mg/kg ip): 37%; Toxic deaths ([2]; 25 mg/kg ip): 0/10; Percent inhibition of Tumor growth ([2]; 50 mg/kg ip): 61%; Toxic deaths ([2]; 50 mg/kg ip): 2/10
10 | CCCCCCCCCCCCCCCCOC[C@H]1OCC[C@H]1OP(=O)([O-])OCC[N+](C)(C)C [drawing 21 (R = H, R^1 = H), 1,2-dideoxy-3-phosphocholyl-5-n-hexadecyl-D-xylofuranose] | 6.2 (≈ 12.2 µM) | –
11 | CCCCCCCCCCCCCCCCOC[C@H]1O[C@H](OC)C[C@H]1OP(=O)([O-])OCC[N+](C)(C)C [drawing 21 (R = MeO, R^1 = H), α-Methyl 2-deoxy-3-phosphocholyl-5-n-hexadecyl-D-xylofuranoside] | 5.3 (≈ 9.86 µM) | –
